Data: ChEMBL document CHEMBL1122101, “Synthesis and tissue distribution study of iodine-labeled benzyl- and xylylamines” (J Med Chem, 1982)

Assays:
Rattus norvegicus [1] = experiment: Evaluated for biodistribution in rat liver after 1 min of administration; format: ADME, organism-based; details: in vivo
Rattus norvegicus [2] = experiment: Evaluated for biodistribution in rat thyroid after 1 min of administration; format: ADME, organism-based, Thyroid gland; details: in vivo
Rattus norvegicus [3] = experiment: Evaluated for biodistribution in rat lung after 6 min of administration; format: ADME, organism-based; details: in vivo, 0.1 h
Rattus norvegicus [4] = experiment: Evaluated for biodistribution in rat heart after 6 min of administration; format: ADME, organism-based; details: in vivo, 0.1 h
Rattus norvegicus [5] = experiment: Evaluated for biodistribution in rat blood after 1 min of administration; format: ADME, organism-based; details: in vivo
Rattus norvegicus [6] = experiment: Evaluated for biodistribution in rat blood after 2 min of administration; format: ADME, organism-based; details: in vivo
Rattus norvegicus [7] = experiment: Evaluated for biodistribution in rat thyroid after 2 min of administration; format: ADME, organism-based, Thyroid gland; details: in vivo
Rattus norvegicus [8] = experiment: Evaluated for biodistribution in rat lung after 2 min of administration; format: ADME, organism-based; details: in vivo
Rattus norvegicus [9] = experiment: Evaluated for biodistribution in rat brain after 1 min of administration; format: ADME, organism-based; details: in vivo
Rattus norvegicus [10] = experiment: Evaluated for biodistribution in rat kidney after 6 min of administration; format: ADME, organism-based; details: in vivo, 0.1 h
Rattus norvegicus [11] = experiment: Evaluated for biodistribution in rat liver after 6 min of administration; format: ADME, organism-based; details: in vivo, 0.1 h
Rattus norvegicus [12] = experiment: Evaluated for biodistribution in rat heart after 1 min of administration; format: ADME, organism-based; details: in vivo
Rattus norvegicus [13] = experiment: Evaluated for biodistribution in rat thyroid after 6 min of administration; format: ADME, organism-based, Thyroid gland; details: in vivo, 0.1 h
Rattus norvegicus [14] = experiment: Evaluated for biodistribution in rat blood after 6 min of administration; format: ADME, organism-based; details: in vivo, 0.1 h
Rattus norvegicus [15] = experiment: Evaluated for biodistribution in rat heart after 2 min of administration; format: ADME, organism-based; details: in vivo
Rattus norvegicus [16] = experiment: Evaluated for biodistribution in rat brain after 2 min of administration; format: ADME, organism-based; details: in vivo
Rattus norvegicus [17] = experiment: Evaluated for biodistribution in rat liver after 2 min of administration; format: ADME, organism-based; details: in vivo
Rattus norvegicus [18] = experiment: Evaluated for biodistribution in rat kidney after 1 min of administration; format: ADME, organism-based; details: in vivo
Rattus norvegicus [19] = experiment: Evaluated for biodistribution in rat brain after 6 min of administration; format: ADME, organism-based; details: in vivo, 0.1 h
Rattus norvegicus [20] = experiment: Evaluated for biodistribution in rat kidney after 2 min of administration; format: ADME, organism-based; details: in vivo
Rattus norvegicus [21] = experiment: Evaluated for biodistribution in rat lung after 1 min of administration; format: ADME, organism-based; details: in vivo
[22] = Evaluated for the carrier level on brain uptake at 4 mg/kg dose in rat; format: ADME, organism-based; set-up: dose 4 mg/kg; details: in vivo
[23] = Evaluated for the carrier level on brain uptake at 40 mg/kg dose in rat; format: ADME, organism-based; set-up: dose 40 mg/kg; details: in vivo
[24] = Evaluated for the carrier level on brain uptake at 0.4 mg/kg dose in rat; format: ADME, organism-based; set-up: dose 0.4 mg/kg; details: in vivo
[25] = Evaluated for the carrier level on brain uptake at 0.04 mg/kg dose in rat; format: ADME, organism-based; set-up: dose 0.04 mg/kg; details: in vivo

Row | Biodistribution (Rattus norvegicus [1]) [%] | Biodistribution (Rattus norvegicus [2]) [%] | Biodistribution (Rattus norvegicus [3]) [%] | Biodistribution (Rattus norvegicus [4]) [%] | Biodistribution (Rattus norvegicus [5]) [%] | Biodistribution (Rattus norvegicus [6]) [%] | Biodistribution (Rattus norvegicus [7]) [%] | Biodistribution (Rattus norvegicus [8]) [%] | Biodistribution (Rattus norvegicus [9]) [%] | Biodistribution (Rattus norvegicus [10]) [%] | Biodistribution (Rattus norvegicus [11]) [%] | Biodistribution (Rattus norvegicus [12]) [%] | Biodistribution (Rattus norvegicus [13]) [%] | Biodistribution (Rattus norvegicus [14]) [%] | Biodistribution (Rattus norvegicus [15]) [%] | Biodistribution (Rattus norvegicus [16]) [%] | Biodistribution (Rattus norvegicus [17]) [%] | Biodistribution (Rattus norvegicus [18]) [%] | Biodistribution (Rattus norvegicus [19]) [%] | Biodistribution (Rattus norvegicus [20]) [%] | Structure (SMILES) | also measured
1 | 1.92 | 0.01 | 0.04 | 0.014 | 1.35 | 7.01 | 0.11 | 2.9 | 0.07 | 0.34 | 0.45 | 0.06 | 0.035 | 0.35 | 0.59 | 2.42 | 11.81 | 1.03 | 0.022 | 10.12 | CN(C)Cc1ccccc1I | Biodistribution (Rattus norvegicus [21]): 0.19%
2 | 8.38 | 0.27 | 8.71 | 0.83 | 1.76 | 6.42 | 0.18 | 31.98 | 0.64 | 3.4 | 5.17 | 1.99 | 0.45 | 1.33 | 2.18 | 0.62 | 10.22 | 6.71 | 0.59 | 6.93 | CC(C)NCc1ccc(I)c(CNC(C)C)c1 | Biodistribution (Rattus norvegicus [21]): 13.02%
3 | 13.51 | 0.15 | 1.75 | 0.18 | 1.6 | 4.11 | 0.22 | 26.54 | 1.47 | 1.97 | 9.2 | 0.51 | 0.11 | 0.77 | 3.19 | 1.7 | 12.5 | 7.75 | 0.7 | 7.33 | Ic1ccc(CN2CCCCC2)cc1CN1CCCCC1 | Biodistribution (Rattus norvegicus [21]): 6.65%
4 | 18.31 | 0.11 | 1.96 | 0.19 | 0.83 | 3.52 | 0.28 | 22.63 | 2.36 | 2.98 | 7.81 | 0.44 | 0.14 | 0.42 | 2.76 | 2.4 | 9.52 | 6.19 | 1.51 | 7.69 | CN(C)Cc1ccc(I)c(CN(C)C)c1 | Brain uptake [22]: 2.09%; Brain uptake [23]: 2.43%; Brain uptake [24]: 3.03%; Brain uptake [25]: 2.67%; Biodistribution (Rattus norvegicus [21]): 4.36%
